The first experiment has as its target T1, hSTING HAQ allele (Homo sapiens, UniProt Q86WV6, G230A/H232R/R293Q).
T1 construct: DNA encoding amino acids 140-379 (amino acid numbering corresponding to Swiss Prot Q86WV6); 6xHIS-SUMO (with TEV site) (N, cleaved yes); made in house; host or cells: Rosetta2 (DE3) E. coli
Kind of experiment: Differential scanning fluorometry (DSF) Tm shift with purified STING AA140-379. The class given is binding. Particulars: DSF, ligand 1 mM, 1 mg/ml STING AA140-379; read-out: hSTING Tm Shift HAQ. The source says: DNA encoding amino acids 140-379 (amino acid numbering corresponding to Swiss Prot Q86WV6) was amplified from plasmids containing the full length sequence of human STING alleles via polymerase chain reaction with the following primers: forward […] (SEQ ID NO: 9) and reverse […] (SEQ ID NO: 10). STING variant alleles were assigned according to Yi, et al, (2013), PLoS One, 8(10), e77846 (DOI: 10.1371/journal.pone.0077846. PCR products were cloned into bacterial expression vector encoding a N-terminal hexa-histidine affinity tag (6×HIS) followed by a small ubiquitin-like modifier (SUMO) solubility sequence (Butt, et al, (2005) Protein expression and purification 43.1, 1-9) and tobacco etch virus protease cleavage site (TEV) using ligation independent cloning (Aslanidis, et al, (1990) Nucleic acids research, 18.20, 6069-6074).
Plasmids encoding 6×HIS-SUMO-TEV-STING amino acids 140-379 were transformed into Rosetta2 (DE3) E. coli cells (EMD Millipore) for protein expression. Cells were grown in lysogeny broth at 37° C. until a […] absorbance of 0.6 was reached. Cells were then transferred to 18° C. and protein expression was induced overnight by the addition of isopropyl β-D-1-thiogalactopyranoside to the media at a concentration of 0.25 mM. Cells were harvested by centrifugation at 6,000 times gravity for 10 minutes. Cell pellets were re-suspended on ice in a buffer containing 50 mM Tris hydrochloride (Tris-HCl) pH 7.5, 500 mM sodium chloride (NaCl), 20 mM imidazole, 10% glycerol, 1 mM tris(2-carboxyethyl)phosphine hydrochloride (TCEP) and protease inhibitor tablet (Pierce) (Buffer A). Cells were lysed using an S-450D sonifier (Emmerson industrial) on ice. Cell lysate was centrifuged at 15,000 times gravity for 30 minutes at 4° C. Soluble material was applied to nickel-nitrilotriacetic acid (Ni-NTA) coupled Sepharose CL-6B (Qiagen) for 1 hour with gentle rocking at 4° C. After transfer to a gravity flow poly-prep column (Bio-Rad), resin was washed extensively in buffer A. Protein was eluted from the column in a buffer containing 20 mM Tris-HCl pH 7.5, 150 mM NaCl, 300 mM imidazole, 10% glycerol and 0.5 mM TCEP. To remove the 6×HIS-SUMO tag eluted protein was mixed with TEV protease (Sigma) at a ratio of 1:250 (w:w) and dialyzed overnight against a buffer containing 20 mM Tris-HCl pH 7.5, 150 mM NaCl, 5 mM imidazole, 10% glycerol and 0.5 mM TCEP. TEV protease and 6×HIS-SUMO tags were depleted by the addition of Ni-NTA resin (Qiagen) to the sample, purified STING amino acids 140-379 was collected by removal of the resin using a poly-prep column STING AA140-379 was concentrated with a 10,000 Dalton molecular weight cutoff centrifuge concentrator (EMD Millipore) to a final concentration of approximately 10 mg/ml. Protein was aliquoted, flash frozen in liquid nitrogen and stored at −80° C. until use.
Differential scanning fluorometry (DSF) is a technique that measures the ability of ligands to bind to and stabilize purified proteins (Niesen, et al, (2007) Nature protocols 2.9, 2212-2221). The protein is heated in the presence of a dye that binds to and fluoresces in hydrophobic environments. The protein is thermally denatured by heating resulting in increased dye binding to the unfolded protein and fluorescence. The temperature midpoint (Tm) of a proteins denaturation is established by calculating the half maximal value of the denaturation curve. The temperature midpoint of the protein in the presence of a ligand is directly related to the affinity of the ligand for the protein and therefore its ability to stabilize the protein at higher temperatures.
DSF was performed in a 20 μL reaction comprising 20 mM Tris-HCl pH 7.5, 150 mM NaCl, 1:500 dilution of SYPRO Orange (Life Technologies), 1 mg/ml purified STING AA140-379 protein and ligand at a concentration of 1 mM. Wild type hSTING, HAQ allele hSTING and/or REF allele hSTING were used with scaffold molecules of the invention as listed in Table 2.
Background: DSF heats the sample and reads unfolding from a dye or from intrinsic fluorescence.
T1 sequence (Q86WV6 140-379 G230A/H232R/R293Q): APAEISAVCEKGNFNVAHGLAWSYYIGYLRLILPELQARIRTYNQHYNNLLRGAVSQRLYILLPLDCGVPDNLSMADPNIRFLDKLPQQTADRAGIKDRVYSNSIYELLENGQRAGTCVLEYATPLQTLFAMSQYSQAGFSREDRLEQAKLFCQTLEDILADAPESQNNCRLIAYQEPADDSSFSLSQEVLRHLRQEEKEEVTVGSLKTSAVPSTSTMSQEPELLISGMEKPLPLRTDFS
Take `Nc1ccn([C@@H]2O[C@@H]3CO[P@@](=O)(S)O[C@H]4[C@@H](F)[C@H](n5cnc6c(N)ncnc65)O[C@@H]4CO[P@@](=O)(S)O[C@H]3[C@H]2F)c(=O)n1` [Compound 37, 4-amino-1-((2R,3R,3aR,5R,7aR,9R,10R,10aR,12R,14aR)-9-(6-amino-9H-purin-9-yl) 3,10-difluoro-5,12-dimercapto 5,12-dioxidooctahydro-2H,7H-difuro[3,2-d:3′,2′-j][1,3,7,9]tetraoxa[2,8]diphosphacyclododecin-2-yl)pyrimidin-2(1H)-one]: the ΔTm at 1000 µM was found to be 10.3 °C. For the compound `Nc1ccn([C@@H]2O[C@@H]3CO[P@](=O)(S)O[C@H]4[C@@H](F)[C@H](n5cnc6c(N)ncnc65)O[C@@H]4CO[P@@](=O)(S)O[C@H]3[C@H]2F)c(=O)n1` [Compound 37a, 4-amino-1-((2R,3R,3aR,5R,7aR,9R,10R, 10aR,12S,14aR)-9-(6-amino-9H-purin-9-yl)-3,10-difluoro-5,12-dimercapto-5,12-dioxidooctahydro-2H,7H-difuro[3,2-d: 3′,2′-j][1,3,7,9]tetraoxa[2,8]diphosphacyclododecin-2-yl)pyrimidin-2(1H)-one], the ΔTm at 1000 µM is 6.4 °C. The same measure, in the same setting: in the case of `Nc1ncnc2c1ncn2[C@H]1O[C@H]2CO[P@@](=O)(S)O[C@@H]3[C@H](O)[C@@H](n4cnc5c(N)ncnc54)O[C@H]3CO[P@@](=O)(S)O[C@@H]2[C@@H]1O` [Compound 48b, triethylammonium (2S,3S,3R,5R,7aS,9S,10S,10aR,12R,14aS)-2,9-bis(6-amino-9H-purin-9-yl)-3,10-dihydroxyoctahydro-2H,7H-difuro[3,2-d: 3′,2′-j][1,3,7,9]tetraoxa[2,8]diphosphacyclododecine-5,12-bis(thiolate) 5,12-dioxide] it was 3.5 °C. For the compound `Nc1nc(N)c2ncn([C@@H]3O[C@@H]4CO[P@@](=O)(S)O[C@H]5[C@@H](O)[C@H](n6cnc7c(N)nc(N)nc76)O[C@@H]5CO[P@](=O)(S)O[C@H]4[C@H]3O)c2n1` [Compound 23a, (2R,3R,3aS,5R,7aR,9R,10R,10aS,12S,14aR)-2,9-bis(2,6-diamino-9H-purin-9-yl)-3,10-dihydroxy-5,12-dimercaptooctahydro-2H,7H-difuro[3,2-d:3′,2′-j][1,3,7,9]tetraoxa[2,8]diphosphacyclododecine 5,12-dioxide], the ΔTm at 1000 µM was 6.3 °C. Regarding `CC(C)C(=O)Nc1nc2c(ncn2[C@@H]2O[C@@H]3CO[P@@](=O)(S)O[C@H]4[C@@H](F)[C@H](n5cnc6c(=O)[nH]c(NC(=O)C(C)C)nc65)O[C@@H]4CO[P@@](=O)(S)O[C@H]3[C@H]2F)c(=O)[nH]1` [Compound 32, N,N′-(((2R,3R,3aR,5R,7aR,9R,10R,10aR,12R,14aR)-3,10-difluoro-5,12-dimercapto-5,12-dioxidooctahydro-2H, 7H-difuro[3,2-d:3′,2′-j][1,3,7,9]tetraoxa[2,8]diphosphacyclododecine-2,9-diyl)bis(6-oxo-6,9-dihydro-1H-purine-9,2-diyl))bis(2-methylpropanamide)], the ΔTm at 1000 µM is 11.5 °C.

For the compound `Nc1ncnc2c1ncn2[C@H]1O[C@H]2CO[P@](=O)(S)O[C@@H]3[C@H](O)[C@@H](n4cnc5c(N)ncnc54)O[C@H]3CO[P@](=O)(S)O[C@@H]2[C@@H]1O` [Compound 48, (2S,3S,3aR,5S,7aS,9S,10S,10aR,12S,14aS)-2,9-bis(6-amino-9H-purin-9-yl)-3,10-dihydroxy-5,12-dimercaptooctahydro-2H,7H-difuro[3,2-d:3′,2′-j][1,3,7,9]tetraoxa[2,8]diphosphacyclododecine 5,12-dioxide], the ΔTm at 1000 µM is 2.3 °C.

In the case of `Nc1nc2c(ncn2[C@@H]2O[C@@H]3CO[P@](=O)(S)O[C@@H]4[C@H](O)[C@@H](CO[P@](=O)(S)O[C@H]3[C@H]2O)O[C@H]4n2cnc3c(N)ncnc32)c(=O)[nH]1` [Compound 43], the ΔTm at 1000 µM turned out to be 10.5 °C. Turning to `CC(C)C(=O)Nc1nc2c(ncn2[C@@H]2O[C@@H]3CO[P@@](=O)(S)O[C@@H]4[C@H](O)[C@@H](CO[P@@](=O)(S)O[C@H]3[C@H]2O)O[C@H]4n2cnc3c(NC(=O)c4ccccc4)ncnc32)c(=O)[nH]1` [Compound 42, dithio-[RP, RP]-cyclic-[ibG(3′,5′)p-BzA(2′,5′)p]], the ΔTm at 1000 µM was determined as 7.6 °C. On to `Nc1nc(N)c2ncn([C@@H]3O[C@@H]4CO[P@@](=O)(S)O[C@H]5[C@@H](O)[C@H](n6cnc7c(N)nc(N)nc76)O[C@@H]5CO[P@@](=O)(S)O[C@H]4[C@H]3O)c2n1` [Compound 23, (2R,3R,3aS,5R,7aR,9R,10R,10aS,12R,14aR)-2,9-bis(2,6-diamino-9H-purin-9-yl)-3,10-dihydroxy-5,12-dimercaptooctahydro-2H,7H-difuro[3,2-d:3′,2′-j][1,3,7,9]tetraoxa[2,8]diphosphacyclododecine 5,12-dioxide], for which the ΔTm at 1000 µM was 15.1 °C. With `C#CCOc1nc(N)nc2c1ncn2[C@@H]1O[C@@H]2COP(=O)(O)O[C@H]3[C@@H](O)[C@H](n4cnc5c(=O)[nH]c(N)nc54)O[C@@H]3COP(=O)(O)O[C@H]2[C@H]1O` [compound 25, 2-amino-9-((2R,3R,3aS,7aR,9R,10R,10aS,14aR)-9-(2-amino-6-(prop-2-yn-1-yloxy)-9H-purin-9-yl)-3,5,10,12-tetrahydroxy-5,12-dioxidooctahydro-2H,7H-difuro[3,2-d:3′,2′-j][1,3,7,9]tetraoxa[2,8]diphosphacyclododecin-2-yl)-1,9-dihydro-6H-purin-6-one], the ΔTm at 1000 µM turned out to be 7.2 °C. On to `Nc1ncnc2c1ncn2[C@H]1O[C@H]2CO[P@@](=O)(S)O[C@@H]3[C@H](O)[C@@H](n4cnc5c(N)ncnc54)O[C@H]3CO[P@](=O)(S)O[C@@H]2[C@@H]1O` [Compound 48a, Triethylammonium (2S,3S,3aR,5R,7aS,9S,10S,10aR,12S,14aS)-2,9-bis(6-amino-9H-purin-9-yl)-3,10-dihydroxyoctahydro-2H, 7H-difuro[3,2-d: 3′,2′-j][1,3,7,9]tetraoxa[2,8]diphosphacyclododecine-5,12-bis(thiolate) 5,12-dioxide], for which the ΔTm at 1000 µM amounted to 6.6 °C.

The experiment is the same for the next values; noted with them: read-out: hSTING Tm Shift HAQ.
For the compound `CC(C)(C)[Si](C)(C)O[C@H]1[C@H]2O[P@@](=O)(S)OC[C@H]3O[C@@H](n4cnc5c(N)ncnc54)[C@H](F)[C@@H]3O[P@](=O)(S)OC[C@H]1O[C@H]2n1cnc2c(N)ncnc21` [Compound 6a, dithio-[SP, RP]-cyclic-[3′OTBS-A(2′,5′)p-2′F-A(3′,5′)p]], the ΔTm at 1000 µM worked out at 20.2 °C.

Source of the values: patent US20180369268A1, “METHODS FOR IDENTIFYING INHIBITORS OF "STIMULATOR OF INTERFERON GENE"- DEPENDENT INTERFERON PRODUCTION” (ADURO BIOTECH, INC., priority 2015, published 2018).
